From patent publication US9833492B2, “Combinations of a caspase inhibitor and an antiviral agent” (INSTITUT NATIONAL DE LA SANTE ET DE LA RECHERCHE MEDICALE …, priority 2007, dated 2017)
“Also recorded” adds a separate entry of the source. Like-named read-outs stand apart in the source and are kept apart here. Where a SMILES comes first, the peptide text is derived from it. [ ]: non-standard residue; d: D form. The star is where a group is joined. Sta = CC(C)C[C@H](N)[C@@H](O)CC(=O)O; Isovaleryl = CC(C)CC(=O)*; Cbz = O=C(OCc1ccccc1)*; CH2F = FC*

Experiments:
[1] = tested on: apoptosis; details: Caserta et al., 2003; cited from earlier work
[2] = tested on: lymphocytes stimulated by 1 μg/ml of anti-CD-3; assay: lymphocyte proliferation test with CFSE; type: cell-based, human
Method: FIG. 13. Analysis by flow cytometry of lymphocyte proliferation after 4 and 5 days' stimulation by 1 μg/ml of anti-CD-3, in the presence or absence of HIV antiproteases or of QVD-OPH.
The PBMCs are incubated in the presence of 1 μM of CFSE for 7 minutes at 37° C. The cells are taken up at 1·10^6/ml and then placed in culture and activated by an anti-CD3 at 1 μg/ml (Immunotech).
A lymphocyte proliferation study was conducted with the fluorescent probe CFSE, which allows cell division to be monitored.

[3] = tested on: cells stimulated by anti-CD3; type: cell-based; details: human, 1 day, 50 μM
Method: FIG. 14. Analysis of the fall in the mitochondrial transmembrane potential (% Δφm low) by flow cytometry starting from cells stimulated by 1 μg/ml of anti-CD-3 in the presence or absence of different HIV antiproteases and of QVD-OPH.
(§1) In order to evaluate the change in the transmembrane potential of the inner mitochondrial membrane, the cells were labelled with a fluorescent probe DIOC6 (Molecular Probes, Invitrogen), at a concentration of 40 nM, and incubated for 15 minutes at 37° C. Viral replication was evaluated by internal labelling of the p24 viral protein using an anti-p24-PE antibody (KC-57, Coulter Corp, Beckman).
The cell toxicity was evaluated by analysis of the fall in the mitochondrial transmembrane potential (% Δφm low) using the probe DIOC6, by flow cytometry. The cells stimulated by anti-CD3 were analyzed in the same way on the day following activation.

[4] = tested on: primary strains of the HIV-1 virus; assay: replication of primary HIV-1 strains in CD4+ T lymphocytes (p24); type: cell-based; details: 1 μM
Method: FIG. 7: Graphic representation showing the effect of Q-VD-OPh on primary HIV-1 strains. In all cases (A, B and C), the CD4+ T lymphocytes were stimulated with concanavalin A and IL2 (stimulation being carried out before or during administration of Q-VD-OPh), […], immediately after infection and then 36 hours (d3) and 96 hours (d4) post-infection. A. Analysis by flow cytometry of viral replication in CD4+ T lymphocytes infected with the HIV-1Lai virus or with the serum of a chronic HIV+ patient (strain with X4/R5 dual tropism) and then cultivated in the absence or presence (+Q-VD) of Q-VD-OPh. The percentage of CD4+ cells infected by HIV was determined after intracellular labelling of the p24 viral antigen on the 5th day post-infection in the case of the HIV-Lai virus and on the 6th day post-infection in the case of the serum. […] B. Quantification of viral replication (on the left) and of cell death by measurement of mitochondrial depolarization (on the right) in CD4+ T lymphocytes infected with the serum of the chronic HIV+ patient. […]
The CD4^+ cells were incubated for 2 hours at 37° C. in the presence of 10 ng/ml of HIV-1 virus of strain Lai or 50 ng/ml of primary strains of the HIV-1 virus. […] The HIV p24 antigen, the control for the viral load, was measured in the cell culture supernatants by an ELISA test (Abbott). […]

[5] = tested on: Cytochrome c, Smac/Diablo and Endonuclease G in primary CD4+ T cells infected with HIV-Lai; assay: immunoblot of release of apoptogenic mitochondrial factors after subcellular fractionation; type: cell-based, human; details: 10 μM, day 5 after infection
Method: FIG. 3: Immunoblot (Western blot) showing the effect of Q-VD-OPh on mitochondrial damage resulting from viral replication. Primary CD4+ T cells were infected with HIV-Lai and stimulated with a ConA/IL-2 cocktail and then treated or not treated with 10 μM of Q-VD-OPh (QVD) and/or 10 μM of pepstatin A (PA) immediately after stimulation and then 36 hours (day 3) and 96 hours (day 4) after infection. On the 5th day post-infection, the cells were fractionated into two parts: the membrane fraction and the cytosol fraction. The relocalization of the apoptogenic factors Cytochrome c (Cyt c), Smac/Diablo and Endonuclease G (EndoG) was then evaluated by immunotransfer (Western blot). The proteins Cytochrome c, Smac/Diablo and EndoG were detected using the antibodies indicated above. The proteins Cox IV and actin detected by means of the anti-subunit IV antibodies (clone 1068 Molecular Probe) and anti-actin antibodies (SIGMA), respectively, were used as the control for the fractionation procedure and as the control for the protein load of the gel, respectively. […]
The cytosol and mitochondrial fractions were obtained by the subcellular fractionation technique based on selective permeabilization by digitonin according to Foghsgaard et al. {Foghsgaard, 2001}. […] The protein concentration of the cytosol and mitochondrial fractions was determined by the bicinchoninic acid (BCA) method (Bio-Rad). […]

[6] = tested on: HIV-1 virus; details: cited from earlier work
[7] = tested on: cells infected by HIV; details: cells infected by HIV (Petit et al., 2002), cited from earlier work
[8] = tested on: viral strain HIV-Lai; assay: Example 2: internal p24 viral protein by flow cytometry with different caspase inhibitors; type: cell-based, HIV-1; details: 10 μM
Method: (§2) FIG. 11. Analysis by flow cytometry of the internal viral protein p24 (A) and of the fall in the mitochondrial transmembrane potential (% Δφm low; B) on the 5th (d5) and 7th (d7) day post-infection in primary CD4+ T cells infected by the strain HIV-Lai, after stimulation by Concanavalin A and IL-2 and in the presence or absence of 10 μM of different caspase inhibitors.
as §1
(§3) Primary CD4 T cells were infected by the viral strain HIV-Lai and then stimulated by ConA/IL-2 in the presence or absence of Q-VD-OPH, Q-DEVD-OPH (casp-3 inhibitor), Q-LEDH-OPH (caspase-9 inhibitor) and Q-IETD-OPH (caspase-8 inhibitor) at 10 μM for each of the inhibitors. On days 5 and 7 post-infection, the internal p24 viral protein is measured by flow cytometry after fixation and permeabilization of the CD4 T cells. […] Death was evaluated by analysis of the fall in the mitochondrial transmembrane potential (% Δφm low) using the probe DIOC6 by flow cytometry (FIG. 11B). […]

[9] = tested on: Primary CD4 T cells infected by the viral strain HIV-Lai; assay: Example 2: death by fall in mitochondrial transmembrane potential in infected primary CD4 T cells; type: cell-based, human; details: 10 μM
Method: as §2, §1, §3

[10] = tested on: HIV viral proteins; assay: Example 2: immunoblot of HIV viral proteins in infected primary CD4 T cells; type: cell-based, HIV-1; details: versus control cultures
Method: FIG. 12. Analysis by immunoblot of the quantity of HIV viral proteins produced from extracts of primary CD4 T cells infected by the strain HIV-Lai in the presence or absence of different caspase inhibitors.
20 μg extracts of total lysate prepared with 1% NP40 were boiled for 5 minutes in Laemmli buffer containing 2% SDS and 10% 2-β-mercaptoethanol, then deposited on 10-20% polyacrylamide gradient gels (Invitrogen). After transfer of the proteins, the immunoblots were incubated with the following primary antibodies: anticaspase-3, anticaspase-8 and anticaspase-9 (Cell Signaling), anti-PARP (Pharmingen) and anti-Tubulin (Santa-Cruz).
Primary CD4 T cells were infected by the viral strain HIV-Lai and then stimulated by ConA/IL-2 in the presence or absence of Q-VD-OPH, Q-DEVD-OPH (casp-3 inhibitor), Q-LEDH-OPH (caspase-9 inhibitor) and Q-IETD-OPH (caspase-8 inhibitor) at 10 μM for each of the inhibitors. On days 5 and 7 post-infection, the internal p24 viral protein is measured by flow cytometry after fixation and permeabilization of the CD4 T cells. […] Death was evaluated by analysis of the fall in the mitochondrial transmembrane potential (% Δφm low) using the probe DIOC6 by flow cytometry (FIG. 11B). […] Extracts of primary CD4 T cells infected in the presence or absence of the different caspase inhibitors as well as QVD-OPH were analyzed by immunoblot for the HIV viral proteins (FIG. 12).

COC(=O)CC(NC(=O)OC(C)(C)C)C(=O)CF [Boc-D-fmk, tert-butyloxycarbonyl-Asp(O-methyl)-fluoromethyl ketone]
inhibition of apoptosis [1]: inhibits apoptosis in a dose-dependent manner

CC(C)(C)NC(=O)[C@@H]1CN(Cc2cccnc2)CCN1C[C@@H](O)C[C@@H](Cc1ccccc1)C(=O)N[C@H]1c2ccccc2C[C@H]1O [Indinavir]
lymphocyte proliferation (CFSE) ([2]; 50 μM, after 4 and 5 days' stimulation): block the proliferation | fall in Δφm [3]: 70-80%

CC(C)(C)NC(=O)[C@@H]1C[C@@H]2CCCC[C@@H]2CN1C[C@@H](O)[C@H](Cc1ccccc1)NC(=O)[C@H](CC(N)=O)NC(=O)c1ccc2ccccc2n1 [Saquinavir]
lymphocyte proliferation (CFSE) [2]: block the proliferation | fall in Δφm [3]: 70-80%

O=c1[nH]cnc2c1ncn2[C@H]1CC[C@@H](CO)O1 [ddl]
replication of five primary HIV-1 isolates of R5 tropism [4]: strong inhibition of viral replication

CC(C)CC(=O)N[C@H](C(=O)N[C@H](C(=O)N[C@@H](CC(C)C)[C@@H](O)CC(=O)N[C@@H](C)C(=O)N[C@@H](CC(C)C)[C@@H](O)CC(=O)O)C(C)C)C(C)C [pepstatin A] (Isovaleryl-VV[Sta]A[Sta]-OH)
mitochondrial damage: apoptogenic factors Cytochrome C, Smac/Diablo and EndoG in the cytosol fraction [5]: no effect

CC(C)[C@H](NC(=O)OCc1ccccc1)C(=O)N[C@@H](C)C(=O)N[C@@H](CC(=O)O)C(=O)CF [z-VAD-fmk, N-benzyloxycarbonyl-Val-Ala-Asp-fluoromethyl ketone] (Cbz-Val-Ala-Asp-CH2F)
effect on viral replication ([6]; T-leukaemia cells (CEM) or PBMC exposed to HIV-1 (Chinnaiyan et al., 1997)): increasing viral replication | endogenous viral replication ([6]; activated PBMCs from HIV-1-positive asymptomatic patients (Chinnaiyan et al., 1997)): stimulating endogenous viral replication | inhibition of viral replication ([6]; in vitro (Gandhi et al., 1998; Petit et al., 2002)): nor does it inhibit viral replication; also recorded: did not enable viral replication to be inhibited | inhibition of apoptosis [1]: inhibits apoptosis in a dose-dependent manner | apoptotic phenotype (condensation and fragmentation of the nuclear chromatin) [7]: prevents the apoptotic phenotype | prevention of mitochondrial depolarization, apoptosis or cell death [7]: does not inhibit apoptosis | prevention of mitochondrial depolarization, apoptosis or cell death ([7]; listed as zVAD-kmk): does not prevent either mitochondrial depolarization or cell death

Q-DEVD-OPH
inhibition of viral replication (p24) ([8]; d5): weak effect | inhibition of viral replication (p24) ([8]; d7): absence of protection | death, fall in the mitochondrial transmembrane potential (% Δφm low) [9]: absence of effect | quantity of viral proteins produced [10]: slightly lower
